Like-named read-outs stand apart in the source and are kept apart here.
Key:
HepG2-A16-CD81EGFP cells [1] = experiment: cells; conditions: Homo sapiens, HepG2, read-out: % inhibition
HepG2-A16-CD81EGFP cells [2] = experiment: cells; conditions: Homo sapiens, HepG2, read-out: % inhibition; remark: listed apart in the source
[3] = test system: Plasmodium berghei (Pb-Luc) exoerythrocytic-stage parasites; experiment: microbe, parasite or virus in culture; conditions: for inhibition at 10 µM: read-out: PbLuc max inhibition (%) @ 10 uM
[4] = target: QuantiLum Recombinant Luciferase (Photinus pyralis, UniProt P08659); experiment: Bioluminescence quantification of compound luciferase inhibition; conditions: for Emax: read-out: LucInhib max inhibition
HepG2-A16-CD81EGFP cells [5] = experiment: cells; conditions: Homo sapiens; for IC50: HepG2, read-out: Tox IC50; for inhibition at 50 µM: HepG2, read-out: Tox max inhibition (%) @ 50 uM; for inhibition at 10 µM: HepG2, read-out: Tox max inhibition (%) @ 10 uM
[6] = read-out: Inhibition% @ 50 uM rep1
[7] = read-out: Inhibition% @ 50 uM rep2
[8] = HepG2, read-out: HepG2 Tox% @ 50 uM rep1
[9] = read-out: PbLuc IC50, dose response, 1/3 dilutions, max conc. 10 or 50 uM, unit inferred
[10] = read-out: PbLuc max inhibition (%) @ 50 uM
[11] = HepG2, read-out: HepG2 Tox% @ 50 uM rep2
[12] = read-out: PbLuc IC50, dose response, unit inferred

Sequence of QuantiLum Recombinant Luciferase (P08659 whole entry): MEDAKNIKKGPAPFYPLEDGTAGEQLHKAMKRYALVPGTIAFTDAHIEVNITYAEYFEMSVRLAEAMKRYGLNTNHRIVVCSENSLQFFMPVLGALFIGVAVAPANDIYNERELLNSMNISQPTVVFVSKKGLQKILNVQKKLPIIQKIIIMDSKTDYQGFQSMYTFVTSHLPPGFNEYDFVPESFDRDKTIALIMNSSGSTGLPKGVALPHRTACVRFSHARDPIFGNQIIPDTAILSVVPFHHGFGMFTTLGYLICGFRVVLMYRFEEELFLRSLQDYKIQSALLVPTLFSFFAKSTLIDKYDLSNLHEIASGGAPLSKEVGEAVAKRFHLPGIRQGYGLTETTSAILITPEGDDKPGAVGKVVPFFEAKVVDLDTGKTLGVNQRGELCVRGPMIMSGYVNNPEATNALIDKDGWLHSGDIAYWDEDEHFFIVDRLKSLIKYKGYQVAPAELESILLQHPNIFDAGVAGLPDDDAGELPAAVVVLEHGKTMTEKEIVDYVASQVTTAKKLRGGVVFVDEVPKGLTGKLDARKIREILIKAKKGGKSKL

SMILES	inhibition at 50 µM (HepG2-A16-CD81EGFP cells [1])	inhibition at 50 µM (HepG2-A16-CD81EGFP cells [2])	inhibition at 50 µM [3, 6]	inhibition at 50 µM [3, 7]	IC50 [4]	Emax [4]	cytotoxicity at 50 µM (HepG2-A16-CD81EGFP cells [5]; [8])	IC50 (HepG2-A16-CD81EGFP cells [5])	inhibition at 50 µM (HepG2-A16-CD81EGFP cells [5])	IC50 [3, 9]	inhibition at 50 µM [3, 10]	cytotoxicity at 50 µM (HepG2-A16-CD81EGFP cells [5]; [11])	IC50 [3, 12]	inhibition at 10 µM (HepG2-A16-CD81EGFP cells [5])	inhibition at 10 µM [3]
CCOc1cc2c(cc1OCC)C(c1cc(C)c(O)c(C)c1)NCC2 (stereo not drawn) [MMV000483]	23%	55.7%	69%	61%											
COc1ccc(C2Sc3ccccc3N=C3C2=C(O)c2ccccc23)cc1 (stereo not drawn) [MMV000563]	62.5%	71.1%	103%	104%											
CC1CCCCN1CCCNC(=O)c1ccc2c(c1)sc1nc(-c3ccc(F)cc3)cn12 (stereo not drawn) [MMV000634]	97%	98.9%	103%	103%											
COc1ccccc1CNC(=O)C1c2ccccc2C(=O)N(CC(C)C)C1c1cccs1 (stereo not drawn) [MMV000648]	83.2%	91.6%	103%	105%											
CCOc1ccccc1CNC(=O)C1c2ccccc2C(=O)N(CC(C)C)C1c1cccs1 (stereo not drawn) [MMV000653]	90.2%	94%	104%	106%											
OC(CNC1CCCC1)Cn1c2ccccc2c2ccccc21 (stereo not drawn) [MMV000848]	96.9%	99.2%	103%	104%											
O=C1CC(O)(C(F)(F)C(F)(F)F)Oc2ccccc21 (stereo not drawn) [MMV000972]	96.7%	97.9%	103%	105%											
Cc1sc(NC(=O)c2ccccc2)c(C(c2cccs2)N2CCN(c3ccccc3)CC2)c1C (stereo not drawn) [MMV396652]			99%	99%	> 50 µM	33%	14%	> 50 µM	28%	4.07 µM	97%				
COc1ccc(-c2cc3c(SCC(=O)Nc4cc(C(F)(F)F)ccc4Cl)nccn3n2)cc1 [MMV396679]			102%	103%	> 50 µM	10%	7%	> 50 µM	14%	2.18 µM	105%	18%			
Cc1ccc(-c2cc3c(SCC(=O)Nc4cc(C(F)(F)F)ccc4Cl)nccn3n2)cc1 [MMV396680]			92%	85%	> 50 µM	21%	-4%	> 50 µM	11%	8.63 µM	95%	2.13%			
N#Cc1nc(Cc2cccc3ccccc23)oc1N1CCN(C(c2ccccc2)c2ccccc2)CC1 [MMV396726]			97%	92%	> 50 µM	23%	-11%	> 50 µM	-1%	2.68 µM	100%				
CCOC(=O)c1cnc2c(CC)cccc2c1O [MMV498479]			103%	103%	> 50 µM	19%	-10%	> 50 µM	1%	1.67 µM	106%				
CCOc1cc(Cl)c(C(C)NC(=O)c2ccccc2)cc1OCC (stereo not drawn) [MMV665800]			97%	93%	> 50 µM	41%	49%	> 50 µM	22%		89%	21%	> 50 µM		
CCOC(=O)c1cn(CC)c2cc(N3CCCCC3)c(F)cc2c1=O [MMV665827]			102%	105%	> 20 µM	24%	-12%	> 10 µM		0.0743 µM		-7%		15%	99%
O=C(Nc1ccc(-c2nc3ccccc3[nH]2)cc1)c1ccc(Cl)c(Cl)c1 [MMV665840]			-57%	-66%	> 20 µM	22%	-7%	> 10 µM					> 10 µM	31%	15%
Oc1c2c(nc3ccccc13)CCCC2 [MMV665843]			98%	100%	> 50 µM	18%	-7.59%	> 50 µM	8%	0.894 µM	101%				
COc1cccc(NC(=O)[C@H](C(C)C)n2c(=O)[nH]c3ccccc3c2=O)c1 [MMV665878]			102%	102%	> 50 µM	28%	12%	> 50 µM	13%	13.2 µM	101%	4.53%			
O=C(c1ccccc1F)N(Cc1ccc(Cl)cc1)c1ccccn1 [MMV665899]			100%	98%	> 50 µM	40%	20%	> 50 µM	6%	9.54 µM	94%	28%			
COCCn1c(C)nc2ccccc2c1=O [MMV665904]			100%	102%	> 20 µM	13%	1.26%	> 10 µM		1.99 µM		-3%		22%	90%
N=c1c2ccccc2nnn1-c1cccc(C(F)(F)F)c1 [MMV665923]			99%	99%	> 50 µM	26%	-7.5%	> 50 µM	26%	0.789 µM	104%				
FC(F)(F)c1ccc(Nc2nnnc3ccccc23)cc1 [MMV665935]			102%	101%	> 50 µM	25%	19%	> 50 µM	7%	0.738 µM	105%	-5%			
CCOc1ccc(C=Cc2nc(=O)c3ccccc3o2)cc1 [MMV665940]			102%	101%	16.5 µM	85%	19%	> 50 µM	18%	0.646 µM	104%	1%			
CCOC(=O)c1cn(CC)c2cc(N(C)CCc3ccc(OC)c(OC)c3)c(F)cc2c1=O [MMV665977]			103%	106%	> 50 µM	40%	6%	> 50 µM	3.53%	1.61 µM	106%	3%			
Cc1ccc(N2C(=O)C3C(C2=O)C2(c4ccccc4)C(=O)C3(c3ccccc3)C(c3ccccc3)=C2c2ccccc2)cc1 (stereo not drawn) [MMV666062]			91%	100%	> 50 µM	23%	1.06%	> 50 µM	9%	6.54 µM	102%	8.55%			
O=C(NC1CCCC1)c1ccc(N2CCC(NCc3cccc(C(F)(F)F)c3)CC2)cc1 [MMV666070]			98%	96%	> 50 µM	18%	-11%	> 50 µM	10%	1.86 µM	98%	8.43%			
CCCc1c(C)nc2ccccc2c1O [MMV666081]			101%	103%	> 20 µM	18%	0.331%	> 10 µM		0.195 µM		-5.31%		2.31%	100%
CCCc1c(C)nc2ccc(Br)cc2c1O [MMV666095]			102%	103%	> 50 µM	25%	-21%	> 50 µM	-6%	0.794 µM	106%				
CC(C)(C)c1ccc(C(=O)Nc2c3c(nn2-c2cccc(Cl)c2)CSC3)cc1 [MMV666123]			101%	102%	> 50 µM	23%	18%	> 50 µM	10%	10.1 µM	103%				
O=[N+]([O-])c1ccc(C=NNc2nc3ccccc3[nH]2)cc1 [MMV666607]			-47%	-99%	> 20 µM	30%	14%	> 10 µM				20%	> 10 µM	5%	-2.2%

— PMC4890880 (ACS infectious diseases, 2016)
